Test results published in patent publication EP2801357A1, “Carboxylated stilbenes for activating AMPK and sirtuins” (IMD Natural Solutions GmbH, priority 2013, dated 2014).
Where two headings read alike, the source gives them in different places.

Key:
human sirtuin-1 (Sirt1) = molecular target: T1, human sirtuin-1 (Sirt1) (Homo sapiens, UniProt Q96EB6); assay: SIRT1 Fluorimetric Drug Discovery Kit, Sirt1 activation; type: biochemical; conditions: for Fold increase in sirt1 activity versus control: Example 1(a), 10 µM, trans-resveratrol as control (1.0); for remaining activity at 0.3 µM / remaining activity at 1 µM / remaining activity at 3 µM / remaining activity at 10 µM / remaining activity at 30 µM: read-out: Activity [% control]
T1 construct: purchased BioMol, Hamburg, Germany
T1 sequence (Q96EB6 1-747): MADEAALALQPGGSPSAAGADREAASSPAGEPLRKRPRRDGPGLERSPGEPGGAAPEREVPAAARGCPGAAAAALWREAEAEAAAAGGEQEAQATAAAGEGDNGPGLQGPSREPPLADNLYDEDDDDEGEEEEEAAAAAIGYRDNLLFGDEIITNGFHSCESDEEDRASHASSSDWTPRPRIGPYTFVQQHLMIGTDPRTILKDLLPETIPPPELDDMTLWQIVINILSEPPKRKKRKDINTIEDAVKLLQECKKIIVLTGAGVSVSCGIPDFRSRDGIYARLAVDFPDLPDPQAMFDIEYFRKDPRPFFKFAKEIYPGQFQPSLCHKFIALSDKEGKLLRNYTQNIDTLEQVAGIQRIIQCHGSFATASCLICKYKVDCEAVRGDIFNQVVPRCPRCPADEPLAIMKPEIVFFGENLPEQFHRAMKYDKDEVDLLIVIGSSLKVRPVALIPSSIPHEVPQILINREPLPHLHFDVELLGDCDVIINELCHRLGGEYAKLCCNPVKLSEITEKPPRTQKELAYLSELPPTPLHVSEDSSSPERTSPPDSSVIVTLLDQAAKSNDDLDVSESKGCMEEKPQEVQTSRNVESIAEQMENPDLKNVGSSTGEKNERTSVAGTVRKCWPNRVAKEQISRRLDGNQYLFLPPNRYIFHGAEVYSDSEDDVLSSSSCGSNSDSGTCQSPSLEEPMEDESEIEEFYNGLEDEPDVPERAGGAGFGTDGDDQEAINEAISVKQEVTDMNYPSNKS
Protocol: Compounds were tested for Sirt1 activation using the SIRT1 Fluorimetric Drug Discovery Kit (BioMol, Hamburg, Germany), Testing was carried out in duplicate following the manufacturer's instructions. Assay medium: 50mM Tris-HCl pH 8.0, 137 mM NaCl, 2.7 mM KCI, 1 mM MgCl2, 1 mg/ml bovine serum albumin (BSA). Stock solutions of the test compounds (10 mM in DMSO) were used, yielding a final concentration of 10 µM in the assay plate. Readout was obtained by measuring the fluorescence in a microtiter plate reader (excitation: 380 nm; detection: 440 nm).
The agonistic effect on Sirt1 was determined at different concentrations. For this purpose, the test compound stock solutions were diluted to yield concentrations of 0.3, 1, 3, 10 and 30 µM, respectively, in the assay, which was performed as described above. The compound of structure (I-1) was selected for this experiment.
The selectivity of the agonistic effect of the compound of formula (I-1) on different sirtuin isoforms was investigated. For this purpose, in vitro testing was performed as described in Example 1 using the respective SIRT1 Fluorimetric Drug Discovery Kit, SIRT2 Fluorimetric Drug Discovery Kit, and SIRT3 Fluorimetric Drug Discovery Kit (each from BioMol, Hamburg, Germany). […] The dose-response effect is slightly lesser on Sirt3. Table 3: Activity on Sirt1

[1] = system: 5'-AMP-activated protein kinase (AMPK); assay: Western blot analysis of AMPK phosphorylation in NHEK; type: cell-based, human; conditions: for AMPK phosphorylation [% Control] / P-AMPK / Ratio P-AMPK/ GAPDH: 48 h;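 as to P-AMPK: Chemiluminescence band density of P-AMPK measured with Multigauge software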
[2] = system: normal human epidermal keratinocytes (NHEK); assay: MTT reduction assay, cytotoxicity in NHEK; type: cell-based; conditions: for viability: NHEK, MTT
Protocol: Culture conditions: 37 °C, 5 % CO2. Culture medium: Keratinocyte-SFM (serum-free medium) containing human recombinant epidermal growth factor (EGF 1-53) 0.25 ng/mL and bovine pituitary extract 25 µg/mL (Gibco; Cat. No. 17005-075), supplemented with gentamycin 25 µg/mL. Assay medium: Keratinocyte-SFM (Gibco; Cat. No. 10744-019), supplemented with gentamycin 25 µg/mL.
NHEK were seeded in 24-well plates (30.000 cells / well) and cultured in culture medium for 24 h and then in assay medium for another 24 h. Medium was then removed and replaced by assay medium containing the respective test compound or reference in defined concentrations.
Cytotoxicity was determined using the 3-(4,5-dimethylthiazol-2-yl)-2,5-diphenyltetrazoliumbromid (MTT) reduction assay (sse T. Mosmann (1983) J. Immunol. Methods. 65, pp. 55-63).

Sirt2 = molecular target: T2, Sirt2 (Homo sapiens, UniProt Q8IXJ6); assay: SIRT2 Fluorimetric Drug Discovery Kit, Sirt2 activation; type: biochemical; conditions: Example 2, Table 6, Sirt2
T2 construct: purchased BioMol, Hamburg, Germany
T2 sequence (Q8IXJ6 1-389): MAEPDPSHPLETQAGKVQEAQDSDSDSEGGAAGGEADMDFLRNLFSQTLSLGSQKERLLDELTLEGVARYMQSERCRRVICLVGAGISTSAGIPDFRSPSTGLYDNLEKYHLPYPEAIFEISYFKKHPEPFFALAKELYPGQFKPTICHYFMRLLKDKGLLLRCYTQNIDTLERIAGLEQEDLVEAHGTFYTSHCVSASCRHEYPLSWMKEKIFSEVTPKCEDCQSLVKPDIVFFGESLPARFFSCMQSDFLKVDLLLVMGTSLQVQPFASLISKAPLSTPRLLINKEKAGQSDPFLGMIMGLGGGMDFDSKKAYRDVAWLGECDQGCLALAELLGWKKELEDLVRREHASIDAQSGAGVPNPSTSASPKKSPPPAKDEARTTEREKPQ

[3] = Experiment 1, Membrane 1, 1000 µM
[4] = Experiment 1, Membrane 2, 300 µM

In the case of `COc1cc(/C=C/c2cccc(O)c2C(=O)O)cc(OC)c1O` [(I-4)], the “Fold increase in sirt1 activity versus control” value (“Fold increase” for short) (human sirtuin-1 (Sirt1)) is reported as 2.0.

`CC(=O)c1c(O)cccc1/C=C/c1ccc(OC2OC(CO)C(O)C(O)C2O)cc1` (stereo not drawn) [(I-5)] was tested, and the “Fold increase” value (human sirtuin-1 (Sirt1)) was 2.7.

In the case of `O=C(O)c1c(O)cccc1/C=C/c1ccc(O)cc1` [(I-2)], the “Fold increase” value (human sirtuin-1 (Sirt1)) is reported as 4.8.

`NC(=O)c1ncn([C@@H]2O[C@H](CO)[C@@H](O)[C@H]2O)c1N` [AICAR, 5-Amino-1-ß-D-ribofuranosyl-imidazole-4-carboxamide] was tested, and the “AMPK phosphorylation [% Control]” value [1, 3] was 482 % Control, the P-AMPK [1, 3] was 1060 AU/mm^2 and the “Ratio P-AMPK/ GAPDH” value [1, 3] was 2.05. For the same compound, the “AMPK phosphorylation [% Control]” value ([1]; Experiment 2, 1000 µM) was 506 % Control, the P-AMPK ([1]; Experiment 2, 1000 µM) was 1377449 AU/mm^2 and the “Ratio P-AMPK/ GAPDH” value ([1]; Experiment 2, 1000 µM) was 0.572.

`COC(=O)c1c(/C=C/c2ccc(OC)cc2)cccc1OC` [(I-3)] was tested, and the “Fold increase” value (human sirtuin-1 (Sirt1)) was 1.1.

In the case of `Oc1ccc(/C=C/c2cc(O)cc(O)c2)cc1` [trans-resveratrol], the remaining activity at 0.3 µM (human sirtuin-1 (Sirt1); Example 1(b), Table 2, 0.3 µM) is reported as 104%, the remaining activity at 1 µM (human sirtuin-1 (Sirt1); Example 1(b), Table 2, 1.0 µM) is reported as 101% and the remaining activity at 3 µM (human sirtuin-1 (Sirt1); Example 1(b), Table 2, 3.0 µM) is reported as 100%. The remaining activity at 10 µM (human sirtuin-1 (Sirt1); Example 1(b), Table 2, 10.0 µM) was 108%, the remaining activity at 30 µM (human sirtuin-1 (Sirt1); Example 1(b), Table 2, 30.0 µM) was 120% and the EC300 (human sirtuin-1 (Sirt1); Example 1(b), concentration that gave 3-times the basal response of the enzyme) was > 30 µM. The remaining activity at 0.3 µM (human sirtuin-1 (Sirt1); Example 2, Table 3, 0.3 µM) was 121%, the remaining activity at 1 µM (human sirtuin-1 (Sirt1); Example 2, Table 3, 1.0 µM) was 100% and the remaining activity at 3 µM (human sirtuin-1 (Sirt1); Example 2, Table 3, 3.0 µM) was 117%. The remaining activity at 10 µM (human sirtuin-1 (Sirt1); Example 2, Table 3, 10.0 µM) was 111%, the remaining activity at 30 µM (human sirtuin-1 (Sirt1); Example 2, Table 3, 30.0 µM) was 145% and the EC300 (human sirtuin-1 (Sirt1); Example 2, Table 6, Sirt1) was >30 µM. For the same compound, the viability ([2]; 100 µM) was 2%, the viability ([2]; 300 µM) was 43% and the “concentrations with cytotoxic effects on NHEK” value ([2]; under assay conditions) was ≥ 100 µM. For the same compound, the “AMPK phosphorylation [% Control]” value [1, 4] was 722 % Control, the P-AMPK [1, 4] was 1616 AU/mm^2 and the “AMPK phosphorylation [% Control]” value ([1]; Experiment 2, 10 µM) was 81 % Control. The P-AMPK ([1]; Experiment 2, 10 µM) was 228626 AU/mm^2, the “AMPK phosphorylation [% Control]” value ([1]; Experiment 2, 30 µM) was 86 % Control and the P-AMPK ([1]; Experiment 2, 30 µM) was 211794 AU/mm^2. For the same compound, the “AMPK phosphorylation [% Control]” value ([1]; Experiment 2, 100 µM) was 117 % Control, the P-AMPK ([1]; Experiment 2, 100 µM) was 327757 AU/mm^2 and the “AMPK phosphorylation [% Control]” value ([1]; Experiment 2, 200 µM) was 816 % Control. For the same compound, the P-AMPK ([1]; Experiment 2, 200 µM) was 2361575 AU/mm^2, the “AMPK phosphorylation [% Control]” value ([1]; Experiment 2, 300 µM) was 21 % Control and the P-AMPK ([1]; Experiment 2, 300 µM) was 69290 AU/mm^2. For the same compound, the “dosage needed for similar enhancement of AMPK phosphorylation” value ([1]; effect similar to compound (I-1) at 30 µM) was “at least 200 µM” and the EC300 (Sirt2) was >30 µM.
